Activity calls are given as the source filed them.
Experiments:
Paired box protein Pax-8 = Paired box protein Pax-8 (Homo sapiens, UniProt Q06710); assay: PAX8 transcriptional activity inhibition in RMG-I – RMG-I cells, luciferase, cherry-pick, dose response (AID 687027); assay type: functional, cell-based;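 also: luciferase reporter driven by Pax8 target thyroperoxidase promoter measured by SteadyGlo luminescence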
[1] = general cell-killing toxicity readout – plate reader, dry powder samples, cytotoxicity control for PAX8 inhibitor project, dose response (AID 743021); assay type: functional, cell-based
[2] = blockers of bursicon-stimulated LGR2 cAMP reporter – cell-based, HEK293, CRE-luciferase reporter, cherry pick, set 2, dose response (AID 743343); assay type: functional;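 also: transfected cells were stimulated with diluted bursicon conditioned medium after compound addition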
[3] = viability loss in HEK293 cells – cell-based, plate reader, cherry-picked samples, cytotoxicity control, dose response (AID 743446); assay type: functional
[4] = toxicity toward HepG2 liver cells – cell-based, plate reader, cherry-pick, antagonist series, cytotoxicity control, dose response (AID 743416); assay type: functional
cells [5] = assay: cells
[6] = blockade of melanocortin 4 receptor signaling – cell-based, plate reader, cherry pick, counter-screen for LGR2 antagonist project, dose response (AID 743444); assay type: functional;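 also: transfected HEK 293 cells stimulated with alpha-MSH peptide; potency of inhibitors of the alpha-MSH evoked signal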
[7] = molecular target: T1, Oxysterols receptor LXR-beta (Homo sapiens, UniProt P55055); assay type: functional, cell-based;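 also: Cell-based luminescence dose-response assay of agonist activity at LXR, run as a confirmatory counterscreen to a daf-12 agonist screen; HEK293 cells with Gal4-LXR fusion and GAL4-driven luciferase reporter; agonist potency from rising luciferase signal of a Gal4-LXR reporter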
T1 sequence (P55055 whole entry): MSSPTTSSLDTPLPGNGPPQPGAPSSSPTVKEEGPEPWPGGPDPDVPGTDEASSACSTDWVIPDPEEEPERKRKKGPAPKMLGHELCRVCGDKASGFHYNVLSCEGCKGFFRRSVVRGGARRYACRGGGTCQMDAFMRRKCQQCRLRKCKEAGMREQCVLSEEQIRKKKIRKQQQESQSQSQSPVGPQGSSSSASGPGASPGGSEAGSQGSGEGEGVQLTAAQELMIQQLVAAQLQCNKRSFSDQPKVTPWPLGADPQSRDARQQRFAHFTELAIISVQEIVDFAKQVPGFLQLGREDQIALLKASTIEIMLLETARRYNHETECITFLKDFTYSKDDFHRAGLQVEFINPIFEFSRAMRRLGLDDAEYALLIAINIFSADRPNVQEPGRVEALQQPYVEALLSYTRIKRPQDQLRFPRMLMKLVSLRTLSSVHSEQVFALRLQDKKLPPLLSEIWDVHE

[8] = A549 cell cytotoxicity, dose response, cytotoxicity control, plate reader, cherry-pick, antagonist series (AID 743412); assay type: functional, cell-based
fMet-Leu-Phe receptor = molecular target: T2, fMet-Leu-Phe receptor (Homo sapiens, UniProt P21462); assay: formyl peptide receptor binders – dose response (AID 519); assay type: functional
T2 sequence (P21462 whole entry): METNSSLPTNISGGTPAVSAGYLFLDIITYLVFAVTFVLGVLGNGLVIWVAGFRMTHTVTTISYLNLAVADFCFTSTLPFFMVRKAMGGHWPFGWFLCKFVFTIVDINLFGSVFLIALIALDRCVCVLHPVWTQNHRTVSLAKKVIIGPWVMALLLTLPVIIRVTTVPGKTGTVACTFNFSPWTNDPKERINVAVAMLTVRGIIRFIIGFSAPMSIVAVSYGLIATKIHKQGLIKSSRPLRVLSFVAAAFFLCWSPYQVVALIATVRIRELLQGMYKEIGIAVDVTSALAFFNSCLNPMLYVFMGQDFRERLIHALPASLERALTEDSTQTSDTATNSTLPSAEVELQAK

[9] = molecular target: T3, Trace amine-associated receptor 1 (Homo sapiens, UniProt Q96RJ0); assay: Counterscreen for agonists of the human trace amine associated receptor 1 (hTAAR1): Fluorescence-based cell-based high throughput dose response assay to identify hTAAR1 agonist that also desensitize TAAR1 receptor response.; assay type: functional
T3 sequence (Q96RJ0 whole entry): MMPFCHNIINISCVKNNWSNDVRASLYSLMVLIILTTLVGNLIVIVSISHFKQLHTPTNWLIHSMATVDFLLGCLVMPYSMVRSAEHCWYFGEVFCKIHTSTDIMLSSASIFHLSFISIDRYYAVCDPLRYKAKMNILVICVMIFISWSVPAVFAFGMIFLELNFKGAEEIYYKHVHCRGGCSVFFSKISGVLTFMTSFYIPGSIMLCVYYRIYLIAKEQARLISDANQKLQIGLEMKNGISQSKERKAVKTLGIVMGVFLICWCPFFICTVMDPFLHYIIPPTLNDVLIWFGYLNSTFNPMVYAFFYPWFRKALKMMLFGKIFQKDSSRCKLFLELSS

Nonstructural protein 1 = Nonstructural protein 1 (Influenza A virus, UniProt Q194T2); assay type: functional, Influenza A virus (A/California/07/2009(H1N1))
cells [10] = assay type: functional, cell-based
INS1 = assay: INS-1E survival protection against cytokine death – cell-based, luminescence, retest, dose response (AID 449756); assay type: functional; conditions: Rattus norvegicus;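 also: cell death triggered by IL-1 beta plus TNF-alpha plus IFN-gamma mixture; protective hits raise ATP signal compared with cytokine alone wells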
cells [11] = assay type: functional, cell-based; remark: listed apart in the source
[12] = molecular target: T3, Trace amine-associated receptor 1; assay: Fluorescence-based cell-based high throughput dose response assay to identify agonists of the human trace amine associated receptor 1 (TAAR1).; assay type: functional

Paired box protein Pax-8, sequence (Q06710 whole entry): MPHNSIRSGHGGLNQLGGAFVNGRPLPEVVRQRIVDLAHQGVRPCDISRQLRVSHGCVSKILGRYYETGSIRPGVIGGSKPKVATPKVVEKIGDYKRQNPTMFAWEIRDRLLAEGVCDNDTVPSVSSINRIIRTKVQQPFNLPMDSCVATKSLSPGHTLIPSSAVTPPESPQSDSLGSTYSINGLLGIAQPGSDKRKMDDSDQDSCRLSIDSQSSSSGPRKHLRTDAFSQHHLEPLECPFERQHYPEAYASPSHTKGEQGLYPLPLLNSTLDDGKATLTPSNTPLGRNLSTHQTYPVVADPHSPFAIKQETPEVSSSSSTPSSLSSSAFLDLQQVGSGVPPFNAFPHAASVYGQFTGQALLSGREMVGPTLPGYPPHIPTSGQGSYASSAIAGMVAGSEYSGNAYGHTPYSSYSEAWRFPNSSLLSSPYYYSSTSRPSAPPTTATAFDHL
Nonstructural protein 1, sequence (Q194T2 whole entry): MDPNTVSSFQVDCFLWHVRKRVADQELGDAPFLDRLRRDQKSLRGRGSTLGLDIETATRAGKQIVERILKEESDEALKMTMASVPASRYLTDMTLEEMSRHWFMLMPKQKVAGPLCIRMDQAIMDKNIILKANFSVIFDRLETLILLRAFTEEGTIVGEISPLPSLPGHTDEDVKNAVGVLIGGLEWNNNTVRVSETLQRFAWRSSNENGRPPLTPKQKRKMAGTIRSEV

O=C(Nc1ccc(C(F)(F)F)cc1)N1C[C@@H]2N[C@H](C1)[C@H]2c1ccc(-c2cccc(F)c2)cc1
AC50 (Paired box protein Pax-8): 13.2 µM (active) | AC50 [1]: 27.9 µM (active)

NC(=O)c1ccsc1NC(=O)c1ccc2c(c1)CCCC2
AC50 [2]: 9.99 µM (active) | AC50 [3]: 31.4 µM (active) | AC50 [4]: 42.4 µM (active) | EC50 (cells [5]): > 67.5 µM (inactive) | AC50 [6]: 15.2 µM (active) | EC50 [7]: > 67.5 µM (inactive) | AC50 [8]: 14.1 µM (active)

CCOC(=O)c1c(C)[nH]c(/C=N/c2ccccc2)c1O
Ki (fMet-Leu-Phe receptor): > 66.7 µM (inactive)

COc1cc(N/N=C/c2ccccc2O)ncn1
IC50 [9]: 6.63 µM (active) | IC50 (Nonstructural protein 1): 5.73 µM (active) | IC50 (cells [10]): > 29.9 µM (inactive) | AC50 (INS1): 3.67 µM (active) | EC50 (cells [11]): > 29.9 µM (inactive) | EC50 [12]: > 29.9 µM (inactive)

CC1=C(C#N)C(c2ccc3ncccc3c2)C(C#N)=C(C)N1
Ki (fMet-Leu-Phe receptor): > 66.7 µM (inactive)
